Legend:
MOOVA (Monochoria) = assay: Preemergence weed control under flooded paddy conditions; assay type: in vivo, Monochoria vaginalis; conditions: rated 3-4 weeks after treatment
Method in brief: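 First, seeds or propagules go into the top 0.5 cm of silt loam; next, water is held 1.5 to 3 cm over the soil; then compound (50/50 acetone/water) is pipetted into it at about 0.0313 to 0.500 kg/ha; finally plants are rated visually 0-9 after three to four weeks.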

CYPIR (Rice Flatsedge) = assay: as above; assay type: in vivo, Cyperus iria; conditions: rated 3-4 weeks after treatment
Method in brief: (§1)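 Seeds or propagules sown in silt loam kept flooded 1.5-3 cm; compounds in 50/50 acetone/water pipetted into flood water at about 0.0313 to 0.500 kg/ha. Greenhouse; visual 0-9 rating versus untreated control 3-4 weeks after treatment.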

[1] = tested on: TRZAWR (Wheat, Winter, cv Riband); assay: Postemergence herbicidal evaluation; assay type: in vivo, Triticum aestivum; conditions: postemergence
Method in brief: (§2)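 Young plants, roughly two weeks from seeding, receive the active ingredient as a sprayed dispersion (acetone/water 50/50, 0.5% TWEEN 20) at 40 psi. Doses span about 0.0156 to 0.500 kg/ha. A visual score from 0 to 9 compares treated with control plants four to five weeks on.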

GALAP (Galium) = assay: Postemergence herbicidal evaluation; assay type: in vivo, Galium aparine; conditions: postemergence
Method in brief: as §2

[2] = tested on: SAGPY (Arrowhead (Pygmaea)); assay: Postemergence weed control under flooded paddy conditions; assay type: in vivo, Sagittaria pygmaea; conditions: postemergence weeds, 3-4 weeks after treatment
Method in brief: (§3)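 Weeds 3 to 5 cm tall and rice seedlings at the 1.5 to 2.5 leaf stage were flooded, with water held 1.5 to 3 cm above the soil. Compounds in 50/50 v/v aqueous/acetone went into the flood water at about 0.0313 to 0.500 kg/ha. Visual 0-9 ratings versus control were made 3 to 4 weeks later.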

[3] = tested on: ECHORC (Watergrass (Calif.)); assay: Preemergence weed control under flooded paddy conditions; assay type: in vivo, Echinochloa oryzoides; conditions: rated 3-4 weeks after treatment
Method in brief: as §1

[4] = tested on: ECHORC (Watergrass (Calif.)); assay: Postemergence weed control under flooded paddy conditions; assay type: in vivo, Echinochloa oryzoides; conditions: postemergence weeds, 3-4 weeks after treatment
Method in brief: as §3

ABUTH (Velvetleaf) = assay: Preemergence herbicidal evaluation; assay type: in vivo, Abutilon theophrasti; conditions: rated 4-5 weeks after treatment
Method in brief: (§4)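 Seeds were planted in potting soil in cups, then sprayed preemergence with the test compound in aqueous acetone at about 0.0156 to 0.500 kg per hectare. Cups were kept under greenhouse conditions and visually rated 4–5 weeks after treatment on a 0–9 scale against an untreated control.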

SETVI (Foxtail, Green) [5] = assay: Postemergence herbicidal evaluation; assay type: in vivo, Setaria viridis; conditions: postemergence
Method in brief: as §2

ECHCG (Barnyardgrass) = assay: Preemergence herbicidal evaluation; assay type: in vivo, Echinochloa crus-galli; conditions: rated 4-5 weeks after treatment
Method in brief: as §4

[6] = tested on: IPOHE (Morningglory, Ivyleaf); assay: Preemergence herbicidal evaluation; assay type: in vivo, Ipomoea hederacea; conditions: rated 4-5 weeks after treatment
Method in brief: as §4

[7] = tested on: IPOHE (Morningglory, Ivyleaf); assay: Postemergence herbicidal evaluation; assay type: in vivo, Ipomoea hederacea; conditions: postemergence
Method in brief: as §2

ZEAMX (Corn, Field) = assay: Preemergence herbicidal evaluation; assay type: in vivo, Zea mays; conditions: rated 4-5 weeks after treatment
Method in brief: as §4

SETVI (Foxtail, Green) [8] = assay: Preemergence herbicidal evaluation; assay type: in vivo, Setaria viridis; conditions: rated 4-5 weeks after treatment
Method in brief: as §4

Structure (SMILES): CCOC(=O)CN1C(=O)CN(C)C1=Nc1cc(-n2c(=O)cc(C(F)(F)F)n(C)c2=O)c(F)cc1Cl [Compound 25, Ethyl 2-{{2-chloro-5-[3,6-dihydro-3-methyl-2,6-dioxo-4-(trifluoromethyl)-1(2H)-pyrimidinyl]-4-fluorophenyl}imino}-3-methyl-5-oxo-1-imidazolidineacetate]
- Herbicidal rating MOOVA (MOOVA (Monochoria); 0.0313 kg/ha): 9.0
- Herbicidal rating MOOVA (MOOVA (Monochoria); 0.0625 kg/ha): 9.0
- Herbicidal rating MOOVA (MOOVA (Monochoria); 0.1250 kg/ha): 9.0
- Herbicidal rating MOOVA (MOOVA (Monochoria); 0.2500 kg/ha): 9.0
- Herbicidal rating CYPIR (CYPIR (Rice Flatsedge); 0.0313 kg/ha): 0.0
- Herbicidal rating CYPIR (CYPIR (Rice Flatsedge); 0.0625 kg/ha): 0.0
- Herbicidal rating CYPIR (CYPIR (Rice Flatsedge); 0.1250 kg/ha): 0.0
- Herbicidal rating CYPIR (CYPIR (Rice Flatsedge); 0.2500 kg/ha): 0.0
- TRZAWR herbicidal rating ([1]; rate 0.0156 kg/ha): 2.0
- TRZAWR herbicidal rating ([1]; rate 0.0313 kg/ha): 3.0
- TRZAWR herbicidal rating ([1]; rate 0.0625 kg/ha): 3.0
- GALAP herbicidal rating (GALAP (Galium); rate 0.0156 kg/ha): 2.0
- GALAP herbicidal rating (GALAP (Galium); rate 0.0313 kg/ha): 5.0
- GALAP herbicidal rating (GALAP (Galium); rate 0.0625 kg/ha): 7.0
- Herbicidal rating SAGPY ([2]; rate 0.0313 kg/ha): 0.0
- Herbicidal rating SAGPY ([2]; rate 0.0625 kg/ha): 0.0
- Herbicidal rating SAGPY ([2]; rate 0.1250 kg/ha): 5.0
- Herbicidal rating SAGPY ([2]; rate 0.2500 kg/ha): 5.0
- Herbicidal rating ECHORC ([3]; 0.0313 kg/ha): 4.0
- Herbicidal rating ECHORC ([3]; 0.0625 kg/ha): 6.0
- Herbicidal rating ECHORC ([3]; 0.1250 kg/ha): 7.0
- Herbicidal rating ECHORC ([3]; 0.2500 kg/ha): 9.0
- Herbicidal rating ECHORC ([4]; rate 0.0313 kg/ha): 4.0
- Herbicidal rating ECHORC ([4]; rate 0.0625 kg/ha): 6.0
- Herbicidal rating ECHORC ([4]; rate 0.1250 kg/ha): 7.0
- Herbicidal rating ECHORC ([4]; rate 0.2500 kg/ha): 9.0
- Preemergence herbicidal rating ABUTH (ABUTH (Velvetleaf); rate 0.0156 kg/ha): 9.0
- Preemergence herbicidal rating ABUTH (ABUTH (Velvetleaf); rate 0.0313 kg/ha): 9.0
- ABUTH preemergence herbicidal rating (ABUTH (Velvetleaf); rate 0.0625 kg/ha): 9.0
- ABUTH preemergence herbicidal rating (ABUTH (Velvetleaf); rate 0.1250 kg/ha): 9.0
- ABUTH preemergence herbicidal rating (ABUTH (Velvetleaf); rate 0.2500 kg/ha): 9.0
- SETVI herbicidal rating (SETVI (Foxtail, Green) [5]; rate 0.0156 kg/ha): 0.0
- SETVI herbicidal rating (SETVI (Foxtail, Green) [5]; rate 0.0313 kg/ha): 0.0
- SETVI herbicidal rating (SETVI (Foxtail, Green) [5]; rate 0.0625 kg/ha): 0.0
- Preemergence herbicidal rating ECHCG (ECHCG (Barnyardgrass); rate 0.0156 kg/ha): 0.0
- Preemergence herbicidal rating ECHCG (ECHCG (Barnyardgrass); rate 0.0313 kg/ha): 0.0
- ECHCG preemergence herbicidal rating (ECHCG (Barnyardgrass); rate 0.0625 kg/ha): 0.0
- ECHCG preemergence herbicidal rating (ECHCG (Barnyardgrass); rate 0.1250 kg/ha): 0.0
- ECHCG preemergence herbicidal rating (ECHCG (Barnyardgrass); rate 0.2500 kg/ha): 7.0
- Preemergence herbicidal rating IPOHE ([6]; rate 0.0156 kg/ha): 0.0
- Preemergence herbicidal rating IPOHE ([6]; rate 0.0313 kg/ha): 0.0
- IPOHE preemergence herbicidal rating ([6]; rate 0.0625 kg/ha): 0.0
- IPOHE preemergence herbicidal rating ([6]; rate 0.1250 kg/ha): 2.0
- IPOHE preemergence herbicidal rating ([6]; rate 0.2500 kg/ha): 5.0
- IPOHE herbicidal rating ([7]; rate 0.0156 kg/ha): 9.0
- IPOHE herbicidal rating ([7]; rate 0.0313 kg/ha): 9.0
- IPOHE herbicidal rating ([7]; rate 0.0625 kg/ha): 9.0
- Preemergence herbicidal rating ZEAMX (ZEAMX (Corn, Field); rate 0.0156 kg/ha): 0.0
- Preemergence herbicidal rating ZEAMX (ZEAMX (Corn, Field); rate 0.0313 kg/ha): 0.0
- ZEAMX preemergence herbicidal rating (ZEAMX (Corn, Field); rate 0.0625 kg/ha): 6.0
- ZEAMX preemergence herbicidal rating (ZEAMX (Corn, Field); rate 0.1250 kg/ha): 8.0
- ZEAMX preemergence herbicidal rating (ZEAMX (Corn, Field); rate 0.2500 kg/ha): 9.0
- Preemergence herbicidal rating SETVI (SETVI (Foxtail, Green) [8]; rate 0.0156 kg/ha): 0.0
- Preemergence herbicidal rating SETVI (SETVI (Foxtail, Green) [8]; rate 0.0313 kg/ha): 0.0
- SETVI preemergence herbicidal rating (SETVI (Foxtail, Green) [8]; rate 0.0625 kg/ha): 7.0
- SETVI preemergence herbicidal rating (SETVI (Foxtail, Green) [8]; rate 0.1250 kg/ha): 9.0
- SETVI preemergence herbicidal rating (SETVI (Foxtail, Green) [8]; rate 0.2500 kg/ha): 9.0

Structure (SMILES): CCOC(=O)CN1C(=O)CO/C1=N/c1cc(-n2c(=O)cc(C(F)(F)F)n(C)c2=O)c(F)cc1Cl [Compound 22, Ethyl 2-{{2-chloro-5-[3,6-dihydro-3-methyl-2,6-dioxo-4-(trifluoromethyl)-1(2H)-pyrimidinyl]-4-fluorophenyl}imino}-4-oxo-3-oxazolidineacetate]
- Herbicidal rating MOOVA (MOOVA (Monochoria); 0.1160 kg/ha): 9.0
- Herbicidal rating MOOVA (MOOVA (Monochoria); 0.2310 kg/ha): 9.0
- Herbicidal rating MOOVA (MOOVA (Monochoria); 0.4630 kg/ha): 9.0
- Herbicidal rating CYPIR (CYPIR (Rice Flatsedge); 0.1160 kg/ha): 0.0
- Herbicidal rating CYPIR (CYPIR (Rice Flatsedge); 0.2310 kg/ha): 0.0
- Herbicidal rating CYPIR (CYPIR (Rice Flatsedge); 0.4630 kg/ha): 5.0
- TRZAWR herbicidal rating ([1]; rate 0.0158 kg/ha): 4.0
- TRZAWR herbicidal rating ([1]; rate 0.0315 kg/ha): 3.5
- TRZAWR herbicidal rating ([1]; rate 0.0630 kg/ha): 5.0
- GALAP herbicidal rating (GALAP (Galium); rate 0.0158 kg/ha): 4.0
- GALAP herbicidal rating (GALAP (Galium); rate 0.0315 kg/ha): 4.0
- GALAP herbicidal rating (GALAP (Galium); rate 0.0630 kg/ha): 3.0
- Herbicidal rating SAGPY ([2]; rate 0.1160 kg/ha): 4.0
- Herbicidal rating SAGPY ([2]; rate 0.2310 kg/ha): 4.0
- Herbicidal rating SAGPY ([2]; rate 0.4630 kg/ha): 5.0
- Herbicidal rating ECHORC ([3]; 0.1160 kg/ha): 6.0
- Herbicidal rating ECHORC ([3]; 0.2310 kg/ha): 9.0
- Herbicidal rating ECHORC ([3]; 0.4630 kg/ha): 9.0
- Herbicidal rating ECHORC ([4]; rate 0.1160 kg/ha): 6.0
- Herbicidal rating ECHORC ([4]; rate 0.2310 kg/ha): 9.0
- Herbicidal rating ECHORC ([4]; rate 0.4630 kg/ha): 9.0
- ABUTH preemergence herbicidal rating (ABUTH (Velvetleaf); rate 0.0156 kg/ha): 9.0
- ABUTH preemergence herbicidal rating (ABUTH (Velvetleaf); rate 0.0313 kg/ha): 9.0
- ABUTH preemergence herbicidal rating (ABUTH (Velvetleaf); rate 0.0625 kg/ha): 9.0
- ABUTH preemergence herbicidal rating (ABUTH (Velvetleaf); rate 0.1250 kg/ha): 9.0
- ABUTH preemergence herbicidal rating (ABUTH (Velvetleaf); rate 0.2500 kg/ha): 9.0
- SETVI herbicidal rating (SETVI (Foxtail, Green) [5]; rate 0.0158 kg/ha): 3.0
- SETVI herbicidal rating (SETVI (Foxtail, Green) [5]; rate 0.0315 kg/ha): 5.0
- SETVI herbicidal rating (SETVI (Foxtail, Green) [5]; rate 0.0630 kg/ha): 7.0
- ECHCG preemergence herbicidal rating (ECHCG (Barnyardgrass); rate 0.0156 kg/ha): 0.0
- ECHCG preemergence herbicidal rating (ECHCG (Barnyardgrass); rate 0.0313 kg/ha): 0.0
- ECHCG preemergence herbicidal rating (ECHCG (Barnyardgrass); rate 0.0625 kg/ha): 0.0
- ECHCG preemergence herbicidal rating (ECHCG (Barnyardgrass); rate 0.1250 kg/ha): 3.0
- ECHCG preemergence herbicidal rating (ECHCG (Barnyardgrass); rate 0.2500 kg/ha): 9.0
- IPOHE preemergence herbicidal rating ([6]; rate 0.0156 kg/ha): 0.0
- IPOHE preemergence herbicidal rating ([6]; rate 0.0313 kg/ha): 2.0
- IPOHE preemergence herbicidal rating ([6]; rate 0.0625 kg/ha): 9.0
- IPOHE preemergence herbicidal rating ([6]; rate 0.1250 kg/ha): 9.0
- IPOHE preemergence herbicidal rating ([6]; rate 0.2500 kg/ha): 9.0
- IPOHE herbicidal rating ([7]; rate 0.0158 kg/ha): 9.0
- IPOHE herbicidal rating ([7]; rate 0.0315 kg/ha): 9.0
- IPOHE herbicidal rating ([7]; rate 0.0630 kg/ha): 9.0
- ZEAMX preemergence herbicidal rating (ZEAMX (Corn, Field); rate 0.0156 kg/ha): 2.0
- ZEAMX preemergence herbicidal rating (ZEAMX (Corn, Field); rate 0.0313 kg/ha): 5.0
- ZEAMX preemergence herbicidal rating (ZEAMX (Corn, Field); rate 0.0625 kg/ha): 7.0
- ZEAMX preemergence herbicidal rating (ZEAMX (Corn, Field); rate 0.1250 kg/ha): 8.0
- ZEAMX preemergence herbicidal rating (ZEAMX (Corn, Field); rate 0.2500 kg/ha): 9.0
- SETVI preemergence herbicidal rating (SETVI (Foxtail, Green) [8]; rate 0.0156 kg/ha): 0.0
- SETVI preemergence herbicidal rating (SETVI (Foxtail, Green) [8]; rate 0.0313 kg/ha): 7.0
- SETVI preemergence herbicidal rating (SETVI (Foxtail, Green) [8]; rate 0.0625 kg/ha): 9.0
- SETVI preemergence herbicidal rating (SETVI (Foxtail, Green) [8]; rate 0.1250 kg/ha): 9.0
- SETVI preemergence herbicidal rating (SETVI (Foxtail, Green) [8]; rate 0.2500 kg/ha): 9.0
